Source: patent US6451785B1, “Beta lactams as antiproliferative agents” (SmithKline Beecham Corporation, priority 1997, dated 2002)

Tests used:
CoA-IT [1] = experiment: CoA-IT activity assay in U937 cell microsomes; type: biochemical
Source text: The following is a method to measure CoA-IT activity and the effects of compounds on CoA-IT activity. The assay is based upon mixing cellular material containing CoA-IT activity with a stable lyso phospholipid such as […] and measuring the production of phospholipid product such as […] occurring in the absence of added CoA or CoA-fatty acids.
Any inflammatory cell that contains high levels of CoA-IT activity can be used, such as neutrophils, macrophages or cell lines such as U937 cells. U937 cells were obtained from American Type Culture Collection and grown in RPMI-1640 media (Gibco, Grand Island, N.Y.) supplemented with 10% fetal bovine serum (Hyclone, Logan, UT) at 37° C., 5% CO2. Cells were grown without differentiation (basal state) by any agent, such as dimethyl sulfoxide. As used herein, “inflammatory cells” include, but are not limited to neutrophils, macrophages, monocytes, lymphocytes, eosinophils, basophils, and mast cells.
Microsomes were prepared using standard techniques. In this case, cells were washed with a buffer of 250 mM sucrose, 10 mM Tris, 1 mM EGTA, 1 mM MgCl2, pH 7.4 and ruptured by N2 cavitation (750 psi, 10 minutes). The ruptured cells were centrifuged 1000×g, 5 minutes. The resulting supernatant was centrifuged at 20,000×g,˜20 minutes. Microsomes were prepared from this supernatant by centrifugation at 100,000×g, 60 minutes. The resulting pellet was washed once with assay buffer (150 mM NaCl, 10 mM Na2KPO4, 1 mM EGTA, pH 7.4), recentrifuged and the pellet resuspended in assay buffer (4-20 mg protein/ml) and was stored at −80° C. until assayed.
CoA-II activity was measured in 1.5 ml centrifuge tubes in a total volume of 100 ul. Microsomes were diluted in assay buffer to the desired protein concentration (6-20 ug/tube). The reaction was initiated by addition of [3H]1-alkyl-2-lyso-sn-glycero-3-phosphocholine (GPC) (˜0.1 uCi/tube) and 1 μM final cold 1-alkyl-2-lyso-GPC in assay buffer with 0.25 mg/ml fatty acid-poor bovine serum albumin (BSA) (Calbiochem, La Jolla, Calif.). [3H]1-alkyl-2-lyso-GPC, approximately 50 Ci/mmol, was from NEN-Dupont (Boston, Mass.) and cold 1-alkyl-2-lyso-GPC was from Biomol (Plymouth Meeting, Pa.). Microsomes were pretreated with desired agents for the desired time (10 minutes) before the addition of [3H]1-alkyl-2-lyso-GPC. The reaction was run for the desired tlime (10 minutes) at 37° C. The reaction was stopped and the lipids extracted by addition of 100 ul of chloroform:methanol (1:2, v/v) followed by 100 ul of chloroform and 100 ul of 1 M KCI. The samples were vortexed and centrifuged at high speed in a microfuge for 2-3 minutes. An aliquot of the chloroform-extracted materials were separated, usually by TLC in chloroform/methanol/acetic acid/water (50:25:8:4, v/v), visualized by radioscanning (Bioscan) and the product, [3H]1-alkyl-2-acyl-GPC, was scraped and quantified by liquid scintillation spectroscopy. […] Other methods can be used to separate substrate from product, including but not limited to column chromatography, affinity chromatography and post reaction derivitization.
Protein concentration were assessed using the protein assay reagents from Bio Rad (Richmond, Calif.).

neoplastic cell lines = details: literature, background; several neoplastic cell lines; cited from earlier work
CoA-IT [2] = details: literature, background; cited from earlier work

In the case of `O=S1(=O)CCn2c1nc(-c1ccc(F)cc1)c2-c1ccncc1` [6-(4′-Fluorophenyl)-5-(4-pyridyl)2,3-dihydroimidzo-[2,1-b]thiazole-dioxide], the “effect on CoA-IT activity” value (CoA-IT [1]; at concentrations up to 100 μM) is reported as “no effect”.

With `Fc1ccc(-c2nc3n(c2-c2ccncc2)CCS3)cc1` [6-(4′-Fluorophenyl)-5-(4-pyridyl)-2,3-dihydroimidzo-[2,1-b]thiazole] the “effect on CoA-IT activity” value (CoA-IT [1]; at concentrations up to 100 μM) was “no effect”.

In the case of `Cc1cc(C(C)(C)C)c(O)c(C(C)(C)C)c1` [BHT], the “effect on CoA-IT activity” value (CoA-IT [1]; at concentrations up to 100 μM) is reported as “no effect”.

For `CN(C)CCC=C1c2ccccc2COc2ccccc21` [Doxepine], the “effect on CoA-IT activity” value (CoA-IT [1]; at concentrations up to 100 μM) was “did not inhibit”.

For `CCCCCCCCCCCCCCCCCCOCC(COP(=O)([O-])OCC[N+](C)(C)C)OC` (stereo not drawn) [ET-18-0-CH3, 1-0-octadecyl-2-0-methyl-phosphocholine], the “antiproliferative / apoptosis effect” value (neoplastic cell lines) is listed as “attenuate cell proliferation and induce apoptosis” and the “inhibition of CoA-IT” value (CoA-IT [2]) is listed as “potent inhibitor”.

For `COC(=O)CCCO[C@@H]1NC(=O)[C@H]1NC(c1ccccc1)(c1ccccc1)c1ccccc1` [Example 17, (3S,4S)-4-[3-(Methoxycarbonyl)propoxy]-3-(triphenylmethylamino)azetidin-2-one], the “activity in microsomal CoA-IT assay under other conditions” value (CoA-IT [1]; increased uM or longer pretreatment time) was “active at either increased uM or longer pretreatment time”.

In the case of `O=C(Nc1ccc(Cl)c(C(F)(F)F)c1)Nc1cc(C(F)(F)F)ccc1Oc1cc(Cl)c(Cl)cc1S(=O)(=O)O` [SK&F 45905, 2-[2-[3-(4-Chloro-3-trifluoromethylphneyl)ureido]-4-tifluromethylphenoxy]-4,5-dichlorobenzene sulfonic acid], the “antiproliferative / apoptosis effect” value (neoplastic cell lines) is given as “possess antiproliferative properties” and the “inhibition of CoA-IT” value (CoA-IT [2]) is given as “capable of inhibiting CoA-IT”.

For `CCOP(=O)(CCCCCCCn1c(-c2ccccc2)c(-c2ccccc2)n(-c2ccccc2)c1=O)OCC` [SK&F 98625, Diethyl 7-(3,4,5-triphenyl-2-oxo-2,3-dihydroimidazol-1yl)heptane phosphonate], the “antiproliferative / apoptosis effect” value (neoplastic cell lines) is given as “possess antiproliferative properties” and the “inhibition of CoA-IT” value (CoA-IT [2]) is given as “capable of inhibiting CoA-IT”.

With `COc1cccc2c1cc([N+](=O)[O-])c1c(C(=O)O)cc3c(c12)OCO3` [aristolochic acid] the “effect on CoA-IT activity” value (CoA-IT [1]; at concentrations up to 500 μM) was “no effect”.

With `COc1ccc2c(c1)c(CC(=O)O)c(C)n2C(=O)c1ccc(Cl)cc1` [indomethicin] the “effect on CoA-IT activity” value (CoA-IT [1]; at concentrations up to 100 μM) was “no effect”.

With `COc1ccc2cc([C@H](C)C(=O)O)ccc2c1` [naproxen] the “effect on CoA-IT activity” value (CoA-IT [1]; at concentrations up to 100 μM) was “no effect”.

In the case of `CCN(CC)CCCC(C)Nc1c2ccc(Cl)cc2nc2ccc(OC)cc12` (stereo not drawn) [quinacrine], the “effect on CoA-IT activity” value (CoA-IT [1]; at concentrations up to 500 μM) is reported as “no effect”.
